These results are taken from patent US11497752B2, “Compounds and uses thereof” (Foghorn Therapeutics Inc., priority 2018, dated 2022).

One assay addresses BRG-1 (Homo sapiens, UniProt P51532). Kind of assay: ATPase catalytic activity of BRG-1 (ADP-Glo in vitro biochemical assay). On the technique in general: ADP-Glo turns the ADP formed in a reaction into a luminescent signal.
The target in a further assay is BRM (Homo sapiens, UniProt P51531). In words: ATPase catalytic activity of BRM (ADP-Glo in vitro biochemical assay).
Sequence of BRM (P51531 whole entry): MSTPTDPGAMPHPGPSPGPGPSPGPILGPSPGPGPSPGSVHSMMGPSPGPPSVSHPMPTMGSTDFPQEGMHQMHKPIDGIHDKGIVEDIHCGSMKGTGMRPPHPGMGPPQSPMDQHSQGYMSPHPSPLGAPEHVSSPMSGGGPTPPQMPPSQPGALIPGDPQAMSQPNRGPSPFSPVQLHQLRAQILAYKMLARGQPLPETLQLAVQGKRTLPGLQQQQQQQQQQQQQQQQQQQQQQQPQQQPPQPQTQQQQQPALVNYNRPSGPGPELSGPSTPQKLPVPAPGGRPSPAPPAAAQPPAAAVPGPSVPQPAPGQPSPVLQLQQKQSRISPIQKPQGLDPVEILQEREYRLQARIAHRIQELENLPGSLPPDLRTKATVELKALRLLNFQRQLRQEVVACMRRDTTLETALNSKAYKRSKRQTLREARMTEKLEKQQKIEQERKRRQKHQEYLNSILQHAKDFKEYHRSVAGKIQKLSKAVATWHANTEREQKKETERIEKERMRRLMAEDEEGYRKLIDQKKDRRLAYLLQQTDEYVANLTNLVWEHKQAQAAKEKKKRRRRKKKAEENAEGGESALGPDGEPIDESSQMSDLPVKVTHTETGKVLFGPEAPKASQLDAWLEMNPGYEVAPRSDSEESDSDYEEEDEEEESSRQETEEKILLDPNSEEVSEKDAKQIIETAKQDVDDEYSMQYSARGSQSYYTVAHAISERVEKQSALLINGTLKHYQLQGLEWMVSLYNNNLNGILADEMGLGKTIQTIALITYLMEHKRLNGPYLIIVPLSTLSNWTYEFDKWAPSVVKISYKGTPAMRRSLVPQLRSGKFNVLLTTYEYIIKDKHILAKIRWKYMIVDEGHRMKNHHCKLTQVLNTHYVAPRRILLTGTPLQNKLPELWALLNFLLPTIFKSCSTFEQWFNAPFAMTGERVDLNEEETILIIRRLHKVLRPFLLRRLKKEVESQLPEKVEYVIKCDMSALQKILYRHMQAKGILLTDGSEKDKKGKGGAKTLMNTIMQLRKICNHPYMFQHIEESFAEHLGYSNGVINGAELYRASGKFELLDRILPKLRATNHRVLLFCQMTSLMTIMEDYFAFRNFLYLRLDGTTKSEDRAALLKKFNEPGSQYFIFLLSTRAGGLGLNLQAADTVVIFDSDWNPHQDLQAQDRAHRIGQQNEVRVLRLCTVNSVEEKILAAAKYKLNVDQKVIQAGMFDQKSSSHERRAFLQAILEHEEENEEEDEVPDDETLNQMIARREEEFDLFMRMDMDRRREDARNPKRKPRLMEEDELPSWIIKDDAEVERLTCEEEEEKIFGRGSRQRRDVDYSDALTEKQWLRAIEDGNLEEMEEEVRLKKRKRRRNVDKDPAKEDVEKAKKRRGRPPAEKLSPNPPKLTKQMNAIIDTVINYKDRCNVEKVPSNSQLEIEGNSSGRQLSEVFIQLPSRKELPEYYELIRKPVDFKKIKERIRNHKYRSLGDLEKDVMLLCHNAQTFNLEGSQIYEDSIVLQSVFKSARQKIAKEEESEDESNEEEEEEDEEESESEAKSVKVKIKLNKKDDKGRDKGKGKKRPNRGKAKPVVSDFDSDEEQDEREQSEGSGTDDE

Sequence of BRG-1 (P51532 whole entry): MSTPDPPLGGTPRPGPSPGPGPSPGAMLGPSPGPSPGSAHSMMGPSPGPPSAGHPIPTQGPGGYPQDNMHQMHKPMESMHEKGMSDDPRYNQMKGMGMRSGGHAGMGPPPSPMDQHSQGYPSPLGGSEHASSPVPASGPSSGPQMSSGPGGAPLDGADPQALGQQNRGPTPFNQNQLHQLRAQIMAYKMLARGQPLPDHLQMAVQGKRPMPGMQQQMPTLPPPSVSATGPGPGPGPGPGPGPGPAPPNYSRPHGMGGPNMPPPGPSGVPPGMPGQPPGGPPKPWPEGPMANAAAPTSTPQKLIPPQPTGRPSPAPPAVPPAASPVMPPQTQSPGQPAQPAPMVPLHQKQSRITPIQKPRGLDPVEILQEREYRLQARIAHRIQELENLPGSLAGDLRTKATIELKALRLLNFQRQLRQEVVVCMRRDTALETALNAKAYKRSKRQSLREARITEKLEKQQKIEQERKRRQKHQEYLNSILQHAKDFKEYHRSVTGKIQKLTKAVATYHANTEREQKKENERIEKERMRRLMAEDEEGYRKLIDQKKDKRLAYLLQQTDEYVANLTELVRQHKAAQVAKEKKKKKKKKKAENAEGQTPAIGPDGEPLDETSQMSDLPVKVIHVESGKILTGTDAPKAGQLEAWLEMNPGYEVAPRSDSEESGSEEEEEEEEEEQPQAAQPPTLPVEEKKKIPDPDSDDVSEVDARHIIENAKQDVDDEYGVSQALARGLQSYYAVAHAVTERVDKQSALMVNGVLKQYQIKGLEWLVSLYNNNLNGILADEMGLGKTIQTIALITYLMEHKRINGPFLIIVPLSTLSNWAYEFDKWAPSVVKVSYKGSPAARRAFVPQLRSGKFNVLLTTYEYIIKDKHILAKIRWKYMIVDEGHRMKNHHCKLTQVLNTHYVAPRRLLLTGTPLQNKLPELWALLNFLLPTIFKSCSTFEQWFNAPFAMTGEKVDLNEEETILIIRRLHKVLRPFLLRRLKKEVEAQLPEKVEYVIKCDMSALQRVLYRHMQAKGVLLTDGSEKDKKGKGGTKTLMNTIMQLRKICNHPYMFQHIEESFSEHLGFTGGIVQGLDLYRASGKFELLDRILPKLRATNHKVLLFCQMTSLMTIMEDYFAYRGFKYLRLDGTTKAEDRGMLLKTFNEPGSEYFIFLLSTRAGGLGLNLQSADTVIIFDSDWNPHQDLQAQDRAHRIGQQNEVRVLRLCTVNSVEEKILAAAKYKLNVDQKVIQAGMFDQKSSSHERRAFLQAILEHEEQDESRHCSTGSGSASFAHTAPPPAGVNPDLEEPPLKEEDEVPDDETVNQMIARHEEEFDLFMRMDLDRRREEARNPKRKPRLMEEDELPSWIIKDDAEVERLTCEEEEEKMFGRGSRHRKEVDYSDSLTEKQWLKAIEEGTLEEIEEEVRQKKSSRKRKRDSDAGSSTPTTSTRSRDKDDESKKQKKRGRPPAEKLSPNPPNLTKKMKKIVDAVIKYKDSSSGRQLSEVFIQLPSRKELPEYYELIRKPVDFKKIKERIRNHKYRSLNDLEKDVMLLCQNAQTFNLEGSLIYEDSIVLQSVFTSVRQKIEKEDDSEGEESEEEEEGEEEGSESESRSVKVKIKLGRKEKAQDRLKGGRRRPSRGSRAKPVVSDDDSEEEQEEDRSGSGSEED

For the compound `CSCC[C@H](NC(=O)c1ccc(CO)cc1)C(=O)Nc1nc(-c2ccccc2)cs1` [Compound 85, 4-(hydroxymethyl)-N-[(1S)-3-methylsulfanyl-1-[(4-phenylthiazol-2-yl)carbamoyl]propyl]benzamide], the IC50 against BRG-1 and at BRM was 1 to 10 µM throughout. Moreover, on BRG-1 (Table 5), the “BRG1 Max % Inhibition” value is reported as more than 90%. Moreover, the “BRM Max % Inhibition” value on BRM (Table 5) was more than 95%.
For the compound `CSCC[C@H](NC(=O)c1ccc(S(C)(=O)=O)cc1)C(=O)Nc1nc(-c2ccccc2)cs1` [Compound 86], the IC50 on BRG-1 and against BRM was more than 10 µM in each case. Further, the “BRG1 Max % Inhibition” value at BRG-1 (Table 5) is more than 70%. Further, the “BRM Max % Inhibition” value at BRM (Table 5) was more than 70%.
`CS(=O)(=O)c1cccc(C(=O)NCC(=O)Nc2nc(-c3ccc4cc[nH]c(=O)c4c3)cs2)c1` [Compound 88, 3-(methylsulfonyl)-N-(2-oxo-2-((4-(1-oxo-1,2-dihydroisoquinolin-7-yl)thiazol-2-yl)amino)ethyl)benzamide]: the figures for the IC50 on BRG-1 and at BRM were 1 to 10 µM and 0.1 to 1 µM, respectively. In addition, the “BRG1 Max % Inhibition” value on BRG-1 (Table 6) is more than 95%. Moreover, the “BRM Max % Inhibition” value at BRM (Table 6) is reported as more than 95%.
For `CS(=O)(=O)c1cccc(C(=O)NCC(=O)Nc2nc(-c3cccc(-c4ccncc4)c3)cs2)c1` [Compound 89, 3-(methylsulfonyl)-N-(2-oxo-2-((4-(3-(pyridin-4-yl)phenyl)thiazol-2-yl)amino)ethyl)benzamide], the figures for the IC50 at BRG-1 and at BRM were 0.1 to 1 µM and less than 0.1 µM, respectively. The “BRG1 Max % Inhibition” value at BRG-1 (Table 6) was more than 80%. The “BRM Max % Inhibition” value at BRM (Table 6) is on record as more than 80%.
Take `CS(=O)(=O)c1cccc(C(=O)NCC(=O)Nc2nc(-c3cccc(-c4ccncn4)c3)cs2)c1` [Compound 90, 3-(methylsulfonyl)-N-(2-oxo-2-((4-(3-(pyrimidin-4-yl)phenyl)thiazol-2-yl)amino)ethyl)benzamide]: the IC50 against BRG-1 and against BRM was less than 0.1 µM throughout. Besides, on BRG-1 (Table 6), the “BRG1 Max % Inhibition” value is recorded as more than 50%. Further, the “BRM Max % Inhibition” value at BRM (Table 6) is more than 70%.
As for `CS(=O)(=O)c1cccc(C(=O)NCC(=O)Nc2nc(-c3cccc(C4CCOCC4)c3)cs2)c1` [Compound 91, 3-(methylsulfonyl)-N-(2-oxo-2-((4-(3-(tetrahydro-2H-pyran-4-yl)phenyl)thiazol-2-yl)amino)ethyl)benzamide], the 50% inhibitory concentration (IC50) (usually the concentration at which inhibition is half-maximal) at BRG-1 was 1 to 10 µM; against BRM it was 0.1 to 1 µM. For the same compound, the “BRG1 Max % Inhibition” value on BRG-1 (Table 6) was more than 90%. Moreover, the “BRM Max % Inhibition” value at BRM (Table 6) is more than 95%.
In the same order, the values of `CS(=O)(=O)c1cccc(C(=O)NCC(=O)Nc2nc(-c3ccc4c(c3)OCCO4)cs2)c1` [Compound 92, N-(2-((4-(2,3-dihydrobenzo[b][1,4]dioxin-6-yl)thiazol-2-yl)amino)-2-oxoethyl)-3-(methylsulfonyl)benzamide] are 0.1 to 1 µM, 0.1 to 1 µM, more than 80% and more than 90%.
For `Cn1cnc2ccc(-c3csc(NC(=O)CNC(=O)c4cccc(S(C)(=O)=O)c4)n3)cc2c1=O` [Compound 93, N-(2-((4-(3-methyl-4-oxo-3,4-dihydroquinazolin-6-yl)thiazol-2-yl)amino)-2-oxoethyl)-3-(methylsulfonyl)benzamide], the concentration for half-maximal inhibition (IC50) at BRG-1 and against BRM was 0.1 to 1 µM throughout. Moreover, the “BRG1 Max % Inhibition” value on BRG-1 (Table 6) is listed as more than 90%. The “BRM Max % Inhibition” value at BRM (Table 6) is on record as more than 90%.
For the compound `CS(=O)(=O)NCc1cccc(-c2csc(NC(=O)CNC(=O)c3cccc(S(C)(=O)=O)c3)n2)c1` [Compound 94, N-(2-((4-(3-(methylsulfonamidomethyl)phenyl)thiazol-2-yl)amino)-2-oxoethyl)-3-(methylsulfonyl)benzamide], the IC50 lay in the range of 1 to 10 µM against BRG-1 and 0.1 to 1 µM at BRM. At BRG-1 (Table 6), the “BRG1 Max % Inhibition” value is more than 90%. Further, at BRM (Table 6), the “BRM Max % Inhibition” value is more than 95%.
For `O=C(CNC(=O)c1ccc2c(c1)CCN2)Nc1nc(-c2cccc(-c3ccncc3)c2)cs1` [Compound 95, N-(2-oxo-2-((4-(3-(pyridin-4-yl)phenyl)thiazol-2-yl)amino)ethyl)indoline-5-carboxamide], in that order: less than 0.1 µM, less than 0.1 µM, more than 95% and more than 95%.
For `O=C(CNC(=O)c1ccc2[nH]ncc2c1)Nc1nc(-c2cccc(-c3ccncc3)c2)cs1` [Compound 96, N-(2-oxo-2-((4-(3-(pyridin-4-yl)phenyl)thiazol-2-yl)amino)ethyl)-1H-indazole-5-carboxamide], in that order: 1 to 10 µM, 0.1 to 1 µM, more than 70% and more than 70%.
In the same order, the values of `CSCC[C@H](NC(=O)c1ccccc1)C(=O)Nc1nc(-c2cccc(-c3ccncc3)c2)cs1` [Compound 97, (S)-N-(4-(methylthio)-1-oxo-1-((4-(3-(pyridin-4-yl)phenyl)thiazol-2-yl)amino)butan-2-yl)benzamide] are 0.1 to 1 µM, 0.1 to 1 µM, more than 70% and more than 70%.
For `CS(=O)(=O)c1cccc(C(=O)NCC(=O)Nc2nc(-c3cccc(-c4nccs4)c3)cs2)c1` [Compound 98, 3-(methylsulfonyl)-N-(2-oxo-2-((4-(3-(thiazol-2-yl)phenyl)thiazol-2-yl)amino)ethyl)benzamide], the IC50 at BRG-1 and on BRM was 0.1 to 1 µM in each case. For the same compound, at BRG-1 (Table 6), the “BRG1 Max % Inhibition” value is on record as more than 70%. For the same compound, the “BRM Max % Inhibition” value on BRM (Table 6) was more than 90%.
For `O=C(CNC(=O)c1ccc2c(c1)CCCN2)Nc1nc(-c2cccc(-c3ccncc3)c2)cs1` [Compound 99, N-(2-oxo-2-((4-(3-(pyridin-4-yl)phenyl)thiazol-2-yl)amino)ethyl)-1,2,3,4-tetrahydroquinoline-6-carboxamide], the half-maximal inhibitory concentration (IC50) against BRG-1 and at BRM was less than 0.1 µM each time. In addition, the “BRG1 Max % Inhibition” value on BRG-1 (Table 6) was more than 95%. Also, the “BRM Max % Inhibition” value at BRM (Table 6) is reported as more than 90%.
Consider `NCc1ccc(C(=O)NCC(=O)Nc2nc(-c3cccc(-c4ccncc4)c3)cs2)cc1` [Compound 100, 4-(aminomethyl)-N-(2-oxo-2-((4-(3-(pyridin-4-yl)phenyl)thiazol-2-yl)amino)ethyl)benzamide], for which the 50% inhibitory concentration (IC50) on BRG-1 lay in the range of 1 to 10 µM; at BRM, 0.1 to 1 µM. Further, on BRG-1 (Table 6), the “BRG1 Max % Inhibition” value is reported as more than 80%. The “BRM Max % Inhibition” value on BRM (Table 6) is more than 80%.
On to `O=C(CNC(=O)c1ccc2cncn2c1)Nc1nc(-c2cccc(-c3ccncc3)c2)cs1` [Compound 101, N-(2-oxo-2-((4-(3-(pyridin-4-yl)phenyl)thiazol-2-yl)amino)ethyl)imidazo[1,5-a]pyridine-6-carboxamide], for which the IC50 against BRG-1 and at BRM was 0.1 to 1 µM throughout. For the same compound, at BRG-1 (Table 6), the “BRG1 Max % Inhibition” value was more than 95%. In addition, the “BRM Max % Inhibition” value at BRM (Table 6) is more than 95%.
On to `O=C(CNC(=O)c1cnc2c(c1)CCCN2)Nc1nc(-c2cccc(-c3ccncc3)c2)cs1` [Compound 102, N-(2-oxo-2-((4-(3-(pyridin-4-yl)phenyl)thiazol-2-yl)amino)ethyl)-5,6,7,8-tetrahydro-1,8-naphthyridine-3-carboxamide], for which the 50% inhibitory concentration (IC50) at BRG-1 and on BRM was 0.1 to 1 µM each time. Further, the “BRG1 Max % Inhibition” value on BRG-1 (Table 6) is listed as more than 80%. Besides, the “BRM Max % Inhibition” value on BRM (Table 6) is given as more than 80%.
